According to patent publication US20240300954A1, “NOVEL MODULATORS OF THE SIGMA-2 RECEPTOR AND THEIR METHOD OF USE” (Temple University-Of The Commonwealth System of Higher …, priority 2017, published 2024):
pIC50: −log10 of the molar value.

Target: sigma-2 receptors (Homo sapiens, UniProt Q5BJF2)
Test: Radiolabel Binding Studies for the Sigma-2 Receptor (3H-DTG competition)
Details: 3H-DTG radioligand; membrane fractions of cells expressing recombinant sigma-2 receptors
Protocol: A solution of the compound of the disclosure to be tested is prepared as a 1-mg/ml stock in Assay Buffer or DMSO according to its solubility. A similar stock of the reference compound Haloperidol is also prepared as a positive control. Eleven dilutions (5× assay concentration) of the compound of the disclosure and Haloperidol are prepared in the Assay Buffer by serial dilution to yield final corresponding assay concentrations ranging from 10 pM to 10 μM.
A stock concentration of 5 nM ^3H-1,3-di-(2-tolyl)guanidine (^3H-DTG) is prepared in 50 mM Tris-HCl, 10 mM MgCl2, 1 mM EDTA, pH 7.4 (Assay Buffer). Aliquots (50 μl) of radioligand are dispensed into the wells of a 96-well plate containing 100 μl of Assay Buffer. Duplicate 50 μl aliquots of the compound of the disclosure test and Haloperidol positive control reference compound serial dilutions are added.
Membrane fractions of cells expressing recombinant sigma-2 receptors (50 μL) are dispensed into each well. The membranes are prepared from stably tranfected cell lines expressing sigma-2 receptors cultured on 10-cm plates by harvesting PBS-rinsed monolayers, resuspending and lysing in chilled, hypotonic 50 mM Tris-HCl, pH 7.4, centrifuging at 20,000×g, decanting the supernatant and storing at −80° C.; the membrane preparations are resuspended in 3 ml of chilled Assay Buffer and homogenized by several passages through a 26 gauge needle before using in the assay.
The 250-μl reactions are incubated at room temperature for 1.5 hours, then harvested by rapid filtration onto 0.3% polyethyleneimine-treated, 96-well filter mats using a 96-well Filtermate harvester. Four rapid 500-μl washes are performed with chilled Assay Buffer to reduce non-specific binding. The filter mats are dried, then scintillant is added to the filters and the radioactivity retained on the filters is counted in a Microbeta scintillation counter.
Raw data (dpm) representing total radioligand binding (i.e., specific+non-specific binding) are plotted as a function of the logarithm of the molar concentration of the competitor (i.e., test or reference compound). Non-linear regression of the normalized (i.e., percent radioligand binding compared to that observed in the absence of test or reference compound) raw data is performed in Prism 4.0 (GraphPad Software) using the built-in three parameter logistic model describing ligand competition binding to radioligand-labeled sites:
[formula] • where bottom equals the residual radioligand binding measured in the presence of 10 μM reference compound (i.e., non-specific binding) and top equals the total radioligand binding observed in the absence of competitor. The log IC50 (i.e., the log of the ligand concentration that reduces radioligand binding by 50%) is thus estimated from the data and used to obtain the Ki by applying the Cheng-Prusoff approximation:
[formula] • where [ligand] equals the assay radioligand concentration and KD equals the affinity constant of the radioligand for the target receptor.

sigma-2 receptors, sequence (Q5BJF2 whole entry, looked up): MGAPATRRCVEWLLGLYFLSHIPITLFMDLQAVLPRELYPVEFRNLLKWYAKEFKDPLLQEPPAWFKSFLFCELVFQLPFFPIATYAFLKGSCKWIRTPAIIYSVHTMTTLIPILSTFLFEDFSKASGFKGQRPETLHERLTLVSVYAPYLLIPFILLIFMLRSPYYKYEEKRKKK

SMILES	pIC50
CCC1(CC)CC(CCN2CC3CN(c4cccc(OC)c4)CC3C2)OC1=O (stereo not drawn) [Entry 20]	7.60
O=C1OC(CCN2CC3(C2)CN(c2ccccc2)C3)CC12CCCCC2 (stereo not drawn) [Entry 11]	7.52
CCC1(CC)CC(CCN2CC3(C2)CN(c2ccncc2)C3)OC1=O (stereo not drawn) [Entry 10]	7.23
CCC1(CC)CC(CCN2CC3CN(c4ccncc4)CC3C2)OC1=O (stereo not drawn) [Entry 2]	7.54
O=C1OC(CCN2CC3CN(c4ccncc4)CC3C2)CC12CCCCC2 (stereo not drawn) [Entry 3]	7.41
CCC1(CC)CC(CCN2CC3CN(c4ccc(OC)cc4)CC3C2)OC1=O (stereo not drawn) [Entry 21]	7.66
O=C1OC(CCN2CC3(C2)CN(c2ccncc2)C3)CC12CCCCC2 (stereo not drawn) [Entry 9]	7.47
Cc1cc(N2CC3CN(CCC4CC5(CCCCC5)C(=O)O4)CC3C2)ccn1 (stereo not drawn) [Entry 7]	7.96
CCC1(CC)CC(CCN2CC3(C2)CN(c2ccccc2)C3)OC1=O (stereo not drawn) [Entry 15]	7.28
Cc1cc(N2CC3CN(CCC4CC5(CCCCC5)C(=O)O4)CC3C2)cc(C)n1 (stereo not drawn) [Entry 8]	7.62

Compounds with a higher pIC50, results first:

pIC50	SMILES
8.02	CCC1(CC)CC(CCN2CC3CN(c4ccc(C#N)cc4)CC3C2)OC1=O (stereo not drawn) [Entry 18]
8.15	CCC1(CC)CC(CCN2CC3CN(c4cccc(C#N)c4)CC3C2)OC1=O (stereo not drawn) [Entry 17]
8.17	CCC1(CC)CC(CCN2CC3CN(c4ccccc4C#N)CC3C2)OC1=O (stereo not drawn) [Entry 16]
8.19	CCC1(CC)CC(CCN2CC3CN(c4ccccc4OC)CC3C2)OC1=O (stereo not drawn) [Entry 19]
8.41	Cc1cnccc1N1CC2(CN(CCC3CC4(CCCCC4)C(=O)O3)C2)C1 (stereo not drawn) [Entry 12]
8.41	Cc1cnccc1N1CC2CN(CCC3CC4(CCCCC4)C(=O)O3)CC2C1 (stereo not drawn) [Entry 6]
8.46	CCC1(CC)CC(CCN2CC3CN(c4ccccc4)CC3C2)OC1=O (stereo not drawn) [Entry 1]
8.62	CC(C)c1ccccc1N1CC2CN(CCC3CC4(CCCCC4)C(=O)O3)CC2C1 (stereo not drawn) [Entry 5]
8.70	CCC1(CC)CC(CCN2CC3CN(c4ccccc4C(C)C)CC3C2)OC1=O (stereo not drawn) [Entry 4]
8.82	Cc1cc(N2CC3(CN(CCC4CC5(CCCCC5)C(=O)O4)C3)C2)cc(C)n1 (stereo not drawn) [Entry 14]
8.92	Cc1cc(N2CC3(CN(CCC4CC5(CCCCC5)C(=O)O4)C3)C2)ccn1 (stereo not drawn) [Entry 13]
